Tested on: Cyperus esculentus (CYPES)
Assay: Pre-emergence herbicidal action against CYPES
Assay type: in vivo
Details: 320 g/ha, scored visually after about 3 weeks vs untreated controls
Source text: CYPES: Cyperus esculentus 1. Pre-Emergence Herbicidal Action and Crop Plant Compatibility Seeds of monocotyledonous and dicotyledonous weed plants and crop plants are placed in plastic or organic planting pots and covered with soil. The compounds of the invention, formulated in the form of wettable powders (WP) or as emulsion concentrates (EC), are then applied onto the surface of the covering soil as aqueous suspension or emulsion with addition of 0.5% additive at a water application rate of […] (converted). After the treatment, the pots are placed in a greenhouse and kept under good growth conditions for the trial plants. After about 3 weeks, the effect of the preparations is scored visually in comparison with untreated controls as percentages. The tables below show the herbicidal activity of numerous compounds according to the invention against important harmful plants. For example, 100% activity=the plants have died, 0% activity=like control plants.

Cn1ncc(C(=O)c2ccc(C(F)(F)F)c3c2OC[S+]3[O-])c1O (stereo not shown) [Example 1-28]
Pre-emergence action against CYPES: 90%
